In this assay the target is T1, Chk1 (Homo sapiens, UniProt O14757).
T1 construct: purchased Upstate Biotechnology
T1 sequence (O14757 1-476): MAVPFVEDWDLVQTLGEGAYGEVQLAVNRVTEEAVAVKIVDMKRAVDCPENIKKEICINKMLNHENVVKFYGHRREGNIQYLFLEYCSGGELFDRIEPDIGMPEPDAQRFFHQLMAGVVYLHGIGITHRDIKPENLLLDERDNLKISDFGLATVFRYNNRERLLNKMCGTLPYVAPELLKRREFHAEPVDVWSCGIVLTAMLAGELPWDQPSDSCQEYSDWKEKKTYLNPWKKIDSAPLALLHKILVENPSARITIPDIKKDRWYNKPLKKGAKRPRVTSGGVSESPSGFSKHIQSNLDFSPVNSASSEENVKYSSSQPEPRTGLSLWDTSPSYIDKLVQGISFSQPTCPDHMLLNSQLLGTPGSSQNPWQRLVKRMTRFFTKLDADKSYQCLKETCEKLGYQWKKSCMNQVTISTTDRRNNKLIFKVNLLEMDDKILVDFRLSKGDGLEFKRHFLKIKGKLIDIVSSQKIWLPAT
Put plainly: Chk1 kinase assay: incorporation of γ-33P ATP into immobilized myelin basic protein. The assay is classed as biochemical. The following applies: read-out: Chk1 IC50. Put shortly: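 Incorporation of γ-33P into myelin basic protein coated on plates was scintillation-counted after 1 h at room temperature, duplicate points. Unlabeled ATP was 10 μM with 10 nM Chk1, 30 μM with 20 nM Chk2; buffer Hepes pH 7.6, MgCl2, DTT, 1% DMSO. Output IC50, optionally converted to Ki.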

Our source for the IC50 values is US7704995B2 (Exelixis, Inc., priority 2003, dated 2010).

Usually IC50 stands for the concentration that gives 50% inhibition. On to `CNC(=O)c1nc(-c2cccc(C(=O)NCC3CCCC3)c2)cnc1N` [Example 253, 3-amino-6-(3-{[(cyclopentylmethyl)amino]carbonyl}phenyl)-N-methylpyrazine-2-carboxamide], for which the IC50 was 50 to 1000 nM.

In the case of `CNC(=O)c1nc(-c2cccc(C(=O)NCc3cc(OC)cc(OC)c3)c2)cnc1N` [Example 254, 3-amino-6-{3-[({[3,5-bis(methyloxy)phenyl]methyl}amino)carbonyl]phenyl}-N-methylpyrazine-2-carboxamide], the IC50 was 50 to 1000 nM.

With `CNC(=O)c1nc(-c2cccc(C(=O)NCc3ccc(S(C)(=O)=O)cc3)c2)cnc1N` [Example 255, 3-amino-N-methyl-6-{3-[({[4-(methylsulfonyl)phenyl]methyl}amino)carbonyl]phenyl}pyrazine-2-carboxamide], the IC50 is 50 to 1000 nM.

For `CNC(=O)c1nc(-c2cccc(C(=O)NCc3cc(Br)ccc3F)c2)cnc1N` [Example 256, 3-amino-6-[3-({[(5-bromo-2-fluorophenyl)methyl]amino}carbonyl)phenyl]-N-methylpyrazine-2-carboxamide], the IC50 fell in the range of 50 to 1000 nM.

Turning to `CNC(=O)c1nc(-c2cccc(C(=O)NCc3ccc(F)c(Br)c3)c2)cnc1N` [Example 257, 3-amino-6-[3-({[(3-bromo-4-fluorophenyl)methyl]amino}carbonyl)phenyl]-N-methylpyrazine-2-carboxamide], the IC50 lay within 50 to 1000 nM.

Take `CNC(=O)c1nc(-c2cccc(C(=O)NCc3c(OC)cc(OC)cc3OC)c2)cnc1N` [Example 258, 3-amino-N-methyl-6-{3-[({[2,4,6-tris(methyloxy)phenyl]methyl}amino)carbonyl]phenyl}pyrazine-2-carboxamide]: the IC50 lay in the range of 50 to 1000 nM.

In the case of `CNC(=O)c1nc(-c2cccc(C(=O)NCc3cccc(C)c3)c2)cnc1N` [Example 259, 3-amino-N-methyl-6-[3-({[(3-methylphenyl)methyl]amino}carbonyl)phenyl]pyrazine-2-carboxamide], the half-maximal inhibitory concentration (IC50) lay in the range of 50 to 1000 nM.

On to `CNC(=O)c1nc(-c2cccc(C(=O)NCc3ccc(Br)cc3F)c2)cnc1N` [Example 260, 3-amino-6-[3-({[(4-bromo-2-fluorophenyl)methyl]amino}carbonyl)phenyl]-N-methylpyrazine-2-carboxamide], for which the IC50 lay in the range of 50 to 1000 nM.

Turning to `CNC(=O)c1nc(-c2cccc(C(=O)NCc3cc(C)ccc3C)c2)cnc1N` [Example 261, 3-amino-6-[3-({[(2,5-dimethylphenyl)methyl]amino}carbonyl)phenyl]-N-methylpyrazine-2-carboxamide], the IC50 lay in the range of 50 to 1000 nM.

As to `CNC(=O)c1nc(-c2cccc(C(=O)NCc3cc(C(F)(F)F)cc(C(F)(F)F)c3)c2)cnc1N` [Example 262, 3-amino-6-{3-[({[3,5-bis(trifluoromethyl)phenyl]methyl}amino)carbonyl]phenyl}-N-methylpyrazine-2-carboxamide], the 50% inhibitory concentration (IC50) is 50 to 1000 nM.

Regarding `CNC(=O)c1nc(-c2cccc(C(=O)NCC(c3ccccc3)c3ccccc3)c2)cnc1N` [Example 263, 3-amino-6-(3-{[(2,2-diphenylethyl)amino]carbonyl}phenyl)-N-methylpyrazine-2-carboxamide], the half-maximal inhibitory concentration (IC50) was 50 to 1000 nM.

As for `CNC(=O)c1nc(-c2ccsc2)cnc1N` [Example 264, 3-amino-N-methyl-6-(3-thienyl)pyrazine-2-carboxamide], the IC50 lay within 50 to 1000 nM.

As for `CNC(=O)c1nc(-c2cccc(S(=O)(=O)NCc3ccccc3)c2)cnc1N` [Example 265, 3-amino-N-methyl-6-(3-{[(phenylmethyl)amino]sulfonyl}phenyl)pyrazine-2-carboxamide], the concentration for half-maximal inhibition (IC50) lay in the range of 1000 to 10000 nM.

For the molecule `CNC(=O)c1nc(-c2cnc(N)c(C(=O)NC)n2)cnc1N` [Example 266, 5,5′-diamino-N,N′-dimethyl-2,2′-bipyrazine-6,6′-dicarboxamide], the IC50 was not below 10000 nM.

Turning to `CNC(=O)c1nc(-c2ccc3[nH]ccc3c2)cnc1N` [Example 267, 3-amino-6-(1H-indol-5-yl)-N-methylpyrazine-2-carboxamide], the IC50 was 50 to 1000 nM.

As for `CNC(=O)c1nc(-c2cccs2)cnc1N` [Example 268, 3-amino-N-methyl-6-(2-thienyl)pyrazine-2-carboxamide], the IC50 fell in the range of 50 to 1000 nM.

On to `CNC(=O)c1nc(-c2ccncc2)cnc1N` [Example 269, 3-amino-N-methyl-6-pyridin-4-ylpyrazine-2-carboxamide], for which the IC50 is 1000 to 10000 nM.

`Nc1ncc(-c2cccc(C(=O)NCc3ccccc3)c2)nc1C(=O)NC1CC1` [Example 270, 3-amino-N-cyclopropyl-6-(3-{[(phenylmethyl)amino]carbonyl}phenyl)pyrazine-2-carboxamide]: the IC50 was 1000 to 10000 nM.

Consider `Nc1ncc(-c2cccc(C(=O)NCc3c(F)cccc3Cl)c2)nc1C(=O)NC1CC1` [Example 271, 3-amino-6-[3-({[(2-chloro-6-fluorophenyl)methyl]amino}carbonyl)phenyl]-N-cyclopropylpyrazine-2-carboxamide], for which the IC50 was not below 10000 nM.

For `CCNC(=O)c1nc(-c2cccc(C(=O)NCc3ccccc3)c2)cnc1N` [Example 272, 3-amino-N-ethyl-6-(3-{[(phenylmethyl)amino]carbonyl}phenyl)pyrazine-2-carboxamide], the IC50 was 1000 to 10000 nM.

For the molecule `CCNC(=O)c1nc(-c2cccc(C(=O)NCc3c(F)cccc3Cl)c2)cnc1N` [Example 273, 3-amino-6-[3-({[(2-chloro-6-fluorophenyl)methyl]amino}carbonyl)phenyl]-N-ethylpyrazine-2-carboxamide], the IC50 was in the range of 1000 to 10000 nM.

Turning to `CNC(=O)c1nc(-c2cccc(C(=O)NCc3cccc(Cl)c3Cl)c2)cnc1N` [Example 274, 3-amino-6-[3-({[(2,3-dichlorophenyl)methyl]amino}carbonyl)phenyl]-N-methylpyrazine-2-carboxamide], the IC50 lay in the range of 50 to 1000 nM.

With `CNC(=O)c1nc(-c2cccc(C(=O)NCc3ccc(Cl)cc3F)c2)cnc1N` [Example 275, 3-amino-6-[3-({[(4-chloro-2-fluorophenyl)methyl]amino}carbonyl)phenyl]-N-methylpyrazine-2-carboxamide], the IC50 was less than 50 nM.

As for `CNC(=O)c1nc(-c2cccc(C(=O)NCc3cc(Cl)cc(Cl)c3)c2)cnc1N` [Example 276, 3-amino-6-[3-({[(3,5-dichlorophenyl)methyl]amino}carbonyl)phenyl]-N-methylpyrazine-2-carboxamide], the IC50 fell in the range of 50 to 1000 nM.

Turning to `CNC(=O)c1nc(-c2cccc(C(=O)NCc3cc(Cl)ccc3F)c2)cnc1N` [Example 277, 3-amino-6-[3-({[(5-chloro-2-fluorophenyl)methyl]amino}carbonyl)phenyl]-N-methylpyrazine-2-carboxamide], the IC50 lay within 50 to 1000 nM.

With `CNC(=O)c1nc(-c2cccc(C(=O)NC3CC3)c2)cnc1N` [Example 278, 3-amino-6-{3-[(cyclopropylamino)carbonyl]phenyl}-N-methylpyrazine-2-carboxamide], the IC50 was 1000 to 10000 nM.

As to `CNC(=O)c1nc(-c2cccc(C(=O)NCc3ccc(Cl)c(Cl)c3)c2)cnc1N` [Example 279, 3-amino-6-[3-({[(3,4-dichlorophenyl)methyl]amino}carbonyl)phenyl]-N-methylpyrazine-2-carboxamide], the IC50 lay in the range of 50 to 1000 nM.

For the molecule `CNC(=O)c1nc(-c2cccc(C(=O)NCc3ccccc3-c3ccc(F)cc3)c2)cnc1N` [Example 280, 3-amino-6-[3-({[(4′-fluorobiphenyl-2-yl)methyl]amino}carbonyl)phenyl]-N-methylpyrazine-2-carboxamide], the IC50 lay in the range of 50 to 1000 nM.

Take `CNC(=O)c1nc(-c2cccc(C(=O)NCc3ccc(F)c(F)c3F)c2)cnc1N` [Example 281, 3-amino-N-methyl-6-[3-({[(2,3,4-trifluorophenyl)methyl]amino}carbonyl)phenyl]pyrazine-2-carboxamide]: the IC50 lay in the range of 50 to 1000 nM.

Take `CNC(=O)c1nc(-c2cccc(C(=O)NCc3c(F)ccc(Cl)c3F)c2)cnc1N` [Example 282, 3-amino-6-[3-({[(3-chloro-2,6-difluorophenyl)methyl]amino}carbonyl)phenyl]-N-methylpyrazine-2-carboxamide]: the IC50 was 50 to 1000 nM.

As for `CNC(=O)c1nc(-c2cccc(C(=O)NC3c4ccccc4-c4ccccc43)c2)cnc1N` [Example 284, 3-amino-6-{3-[(9H-fluoren-9-ylamino)carbonyl]phenyl}-N-methylpyrazine-2-carboxamide], the IC50 is not below 10000 nM.

Regarding `CNC(=O)c1nc(-c2cccc(C(=O)NCc3ccccc3C)c2)cnc1N` [Example 285, 3-amino-N-methyl-6-[3-({[(2-methylphenyl)methyl]amino}carbonyl)phenyl]pyrazine-2-carboxamide], the IC50 is 50 to 1000 nM.

`CNC(=O)c1nc(-c2cccc(C(=O)NCc3ccc(C)c(C)c3)c2)cnc1N` [Example 286, 3-amino-6-[3-({[(3,4-dimethylphenyl)methyl]amino}carbonyl)phenyl]-N-methylpyrazine-2-carboxamide]: the IC50 lay in the range of 50 to 1000 nM.

For `CNC(=O)c1nc(-c2cccc(C(=O)NCc3cc(F)ccc3C)c2)cnc1N` [Example 287, 3-amino-6-[3-({[(5-fluoro-2-methylphenyl)methyl]amino}carbonyl)phenyl]-N-methylpyrazine-2-carboxamide], the IC50 lay in the range of 50 to 1000 nM.
